According to patent publication US20090325964A1, “Piperazine Metabotropic Glutamate Receptor 5 (MGLUR5) Negative Allosteric Modulators For Anxiety/Depression” (Wyeth, priority 2008, published 2009):
Like-named read-outs stand apart in the source and are kept apart here.

Tests used:
[1] = target: T1, mGluR5 (Rattus norvegicus, UniProt P31424); test: IC50 column under 'Biological Activity' (assay not identified in the shown text; not the binding Ki)
[2] = target: T2, rat mGluR5 receptor (Rattus norvegicus, UniProt P31424); test: [3H]-MPEP displacement binding assay, HEK-293 cell membranes expressing rat mGluR5; conditions: [3H]-MPEP displacement, read-out: Median Ki
T2 construct: expressed in transfected cells; host or cells: HEK-293
In short: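 Membranes from HEK-293 cells expressing rat mGluR5 (12-25 μg protein), incubated 60 min at room temperature with 4 nM [3H]-MPEP in 50 mM Tris pH 7.5, then filtered. Nonspecific binding defined with 10 μM MPEP.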

[3] = target: T1, mGluR5; test: IC50 column under 'Biological Activity' (assay not identified in the shown text; not the binding Ki); remark: listed apart in the source

T1 sequence (P31424 21-1203): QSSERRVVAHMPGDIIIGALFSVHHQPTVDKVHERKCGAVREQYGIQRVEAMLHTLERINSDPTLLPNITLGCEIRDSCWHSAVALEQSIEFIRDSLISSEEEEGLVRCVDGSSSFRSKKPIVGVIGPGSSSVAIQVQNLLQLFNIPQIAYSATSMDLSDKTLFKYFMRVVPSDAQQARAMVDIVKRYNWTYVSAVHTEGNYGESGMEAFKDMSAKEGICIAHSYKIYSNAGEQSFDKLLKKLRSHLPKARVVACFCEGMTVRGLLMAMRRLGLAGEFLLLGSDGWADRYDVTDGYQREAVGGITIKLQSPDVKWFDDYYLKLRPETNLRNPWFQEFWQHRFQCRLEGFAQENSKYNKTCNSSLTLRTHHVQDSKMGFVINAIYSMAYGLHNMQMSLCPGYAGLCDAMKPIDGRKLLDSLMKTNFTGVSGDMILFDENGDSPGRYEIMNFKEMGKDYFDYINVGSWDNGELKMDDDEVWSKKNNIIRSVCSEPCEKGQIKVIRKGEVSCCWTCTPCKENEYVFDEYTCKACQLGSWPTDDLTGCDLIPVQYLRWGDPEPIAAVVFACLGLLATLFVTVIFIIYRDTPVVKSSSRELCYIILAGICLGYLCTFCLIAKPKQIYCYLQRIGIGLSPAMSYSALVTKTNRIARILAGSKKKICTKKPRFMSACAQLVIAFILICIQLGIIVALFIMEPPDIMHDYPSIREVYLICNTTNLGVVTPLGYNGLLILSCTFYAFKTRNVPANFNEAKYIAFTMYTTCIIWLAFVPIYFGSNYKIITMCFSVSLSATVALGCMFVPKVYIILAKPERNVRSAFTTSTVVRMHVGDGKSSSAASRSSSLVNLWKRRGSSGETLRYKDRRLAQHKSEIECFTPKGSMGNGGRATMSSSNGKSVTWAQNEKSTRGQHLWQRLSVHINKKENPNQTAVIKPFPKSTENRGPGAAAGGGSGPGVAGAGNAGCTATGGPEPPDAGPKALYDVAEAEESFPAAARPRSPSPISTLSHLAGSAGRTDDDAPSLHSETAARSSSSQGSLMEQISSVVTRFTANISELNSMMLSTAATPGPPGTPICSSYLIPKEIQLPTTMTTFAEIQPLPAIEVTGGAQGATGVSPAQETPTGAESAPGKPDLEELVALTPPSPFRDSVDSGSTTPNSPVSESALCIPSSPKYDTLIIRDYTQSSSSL
T2 sequence (P31424 21-1203): as above

| SMILES | IC50 [1] [nM] | Ki ([2]; rat mGluR5) [nM] | IC50 [3] [nM] | Ki ([2]; rat mGluR5 membranes) [nM] |
| --- | --- | --- | --- | --- |
| COc1ccc(C(=O)N2CCN(c3nnc(Cl)cc3C)CC2)cc1C#Cc1ccccn1 [Compound 302, 6-chloro-3-{4-[4-methoxy-3-(pyridin-2-ylethynyl)benzoyl]piperazin-1-yl}-4-methylpyridazine] | > 1000 | 39 |  |  |
| COc1ccc(C(=O)N2CCN(c3ccc(Cl)nn3)CC2)cc1C#Cc1ccccn1 [Compound 303, 3-chloro-6-{4-[4-methoxy-3-(pyridin-2-ylethynyl)benzoyl]piperazin-1-yl}pyridazine] | > 1000 | 31 |  |  |
| COc1ccc(C(=O)N2CCN(c3nccnc3Cl)CC2)cc1C#Cc1ccccn1 [Compound 304, 2-chloro-3-{4-[4-methoxy-3-(pyridin-2-ylethynyl)benzoyl]piperazin-1-yl}pyrazine] | 408 | 52 |  |  |
| COc1ccc(C(=O)N2CCN(c3nnc(Cl)c4ccccc34)CC2)cc1C#Cc1ccccn1 [Compound 306, 1-chloro-4-{4-[4-methoxy-3-(pyridin-2-ylethynyl)benzoyl]piperazin-1-yl}phthalazine] | 356 | 72 |  |  |
| Cc1ccc(C(=O)N2CCN(c3noc4ccccc34)CC2)cc1C#Cc1ccccn1 [Compound 307, 3-{4-[4-Methyl-3-(pyridin-2-ylethynyl)benzoyl]piperazin-1-yl}-1,2-benzisoxazole] | 50 | 1 |  |  |
| COc1ccnc(N2CCN(C(=O)c3ccc(C)c(C#Cc4ccccn4)c3)CC2)n1 [Compound 308, 4-Methoxy-2-{4-[4-methyl-3-(pyridin-2-ylethynyl)benzoyl]piperazin-1-yl}pyrimidine] | 107 | 8 |  |  |
| Cc1ccc(C(=O)N2CCN(c3ncccn3)CC2)cc1C#Cc1ccccn1 [Compound 309, 2-{4-[4-methyl-3-(pyridin-2-ylethynyl)benzoyl]piperazin-1-yl}pyrimidine] | 193 | 34 |  |  |
| O=C(c1ccc(F)c(C#Cc2ccccn2)c1)N1CCN(c2ccccn2)CC1 [Compound 313, 1-[4-fluoro-3-(pyridin-2-ylethynyl)benzoyl]-4-pyridin-2-ylpiperazine] | 62 | 23 |  |  |
| O=C(c1ccc(F)c(C#Cc2ccccn2)c1)N1CCN(c2noc3ccccc23)CC1 [Compound 316, 3-{4-[4-fluoro-3-(pyridin-2-ylethynyl)benzoyl]piperazin-1-yl}-1,2-benzisoxazole] | 24 | 2 |  |  |
| COc1ccnc(N2CCN(C(=O)c3ccc(F)c(C#Cc4ccccn4)c3)CC2)n1 [Compound 317, 2-{4-[4-fluoro-3-(pyridin-2-ylethynyl)benzoyl]piperazin-1-yl}-4-methoxypyrimidine] | 30 | 20 |  |  |
| CCOc1ccc(C(=O)N2CCN(c3ccccn3)CC2)cc1C#Cc1ccccn1 [Compound 318, 1-[4-ethoxy-3-(pyridin-2-ylethynyl)benzoyl]-4-pyridin-2-ylpiperazine] | 19 | 18 |  |  |
| CCOc1ccc(C(=O)N2CCN(c3nccc(OC)n3)CC2)cc1C#Cc1ccccn1 [Compound 320, 2-{4-[4-ethoxy-3-(pyridin-2-ylethynyl)benzoyl]piperazin-1-yl}-4-methoxypyrimidine] | 31 | 20 |  |  |
| CCOc1ccc(C(=O)N2CCN(c3noc4ccccc34)CC2)cc1C#Cc1ccccn1 [Compound 322, 3-{4-[4-ethoxy-3-(pyridin-2-ylethynyl)benzoyl]piperazin-1-yl}-1,2-benzisoxazole] | 35 | 6 |  |  |
| O=C(c1ccc(OCC2CC2)c(C#Cc2ccccn2)c1)N1CCN(c2noc3ccccc23)CC1 [Compound 324, 3-(4-{[4-(cyclopropylmethoxy)-3-(pyridin-2-ylethynyl)phenyl]carbonyl}piperazin-1-yl)-1,2-benzisoxazole] | 78 | 5 |  |  |
| COc1ccc(C(=O)N2CCN(c3ccc(Cl)cc3)C(=O)C2)cc1C#Cc1ccccn1 [Compound 326, 1-(4-Chlorophenyl)-4-{[4-methoxy-3-(pyridin-2-ylethynyl)phenyl]carbonyl}piperazin-2-one] | 29 | 72 |  |  |
| COc1ccc(C(=O)N2CCN(c3cccc(Cl)c3)C(=O)C2)cc1C#Cc1ccccn1 [Compound 327, 1-(3-chlorophenyl)-4-{[4-methoxy-3-(pyridin-2-ylethynyl)phenyl]carbonyl}piperazin-2-one] | 49 | 40 |  |  |
| COc1ccc(C(=O)N2CCN(c3ccccc3Cl)C(=O)C2)cc1C#Cc1ccccn1 [Compound 328, 1-(2-chlorophenyl)-4-{[4-methoxy-3-(pyridin-2-ylethynyl)phenyl]carbonyl}piperazin-2-one] | 50 | 96 |  |  |

| SMILES | IC50 [1] [nM] | Ki ([2]; rat mGluR5) [nM] | IC50 [3] [nM] | Ki ([2]; rat mGluR5 membranes) [nM] |
| --- | --- | --- | --- | --- |
| COc1ccc(C(=O)N2CCN(c3ccccc3)C(=O)C2)cc1C#Cc1ccccn1 [Compound 329, 4-{[4-methoxy-3-(pyridin-2-ylethynyl)phenyl]carbonyl}-1-phenylpiperazin-2-one] | 118 | 84 |  |  |
| COc1ccc(C(=O)N2CCN(Cc3ccccc3)C(=O)C2)cc1C#Cc1ccccn1 [Compound 331, 1-Benzyl-4-[4-methoxy-3-(pyridin-2-ylethynyl)benzoyl]piperazin-2-one] | 51 | 61 |  |  |
| O=C(c1ccc(OC(F)(F)F)c(C#Cc2ccccn2)c1)N1CCN(c2cnccn2)CC1 [Compound 335, 2-{4-[3-(pyridin-2-ylethynyl)-4-(trifluoromethoxy)benzoyl]piperazin-1-yl}pyrazine] | 273 | 176 |  |  |
| O=C(c1ccc(OC(F)(F)F)c(C#Cc2ccccn2)c1)N1CCN(c2noc3ccccc23)CC1 [Compound 338, 3-{4-[3-(pyridin-2-ylethynyl)-4-(trifluoromethoxy)benzoyl]piperazin-1-yl}-1,2-benzisoxazole] | 16 | 1 |  |  |
| O=C(c1ccc(OC(F)(F)F)c(C#Cc2ccccn2)c1)N1CCN(c2ccccn2)CC1 [Compound 340, 1-Pyridin-2-yl-4-{[3-(pyridin-2-ylethynyl)-4-(trifluoromethoxy)phenyl]carbonyl}piperazine] | 7 | 2 |  |  |
| COc1ccc(C(=O)N2CCN(c3ncccn3)CC2)cc1C#Cc1cccc(C#N)c1 [Compound 361, 3-({2-methoxy-5-[(4-pyrimidin-2-ylpiperazin-1-yl)carbonyl]phenyl}ethynyl)benzonitrile] | 56 | 64 |  |  |
| COc1ccc(C(=O)N2CCN(c3ncccn3)CC2)cc1C#Cc1ccc(F)cc1 [Compound 362, 2-(4-{3-[(4-fluorophenyl)ethynyl]-4-methoxybenzoyl}piperazin-1-yl)pyrimidine] | 1450 | 68 |  |  |
| O=C(c1ccc(C(F)(F)F)c(C#Cc2ccccn2)c1)N1CCN(c2ccccn2)CC1 [Compound 369, 1-pyridin-2-yl-4-{[3-(pyridin-2-ylethynyl)-4-(trifluoromethyl)phenyl]carbonyl}piperazine] |  |  | 30 | 31 |
| COc1ccnc(N2CCN(C(=O)c3ccc(C(F)(F)F)c(C#Cc4ccccn4)c3)CC2)n1 [Compound 373, 4-methoxy-2-(4-{[3-(pyridin-2-ylethynyl)-4-(trifluoromethyl)phenyl]carbonyl}piperazin-1-yl)pyrimidine] |  |  | 34 | 40 |
| O=C(c1ccc(C(F)(F)F)c(C#Cc2ccccn2)c1)N1CCN(c2noc3ccccc23)CC1 [Compound 374, 3-(4-{[3-(pyridin-2-ylethynyl)-4-(trifluoromethyl)phenyl]carbonyl}piperazin-1-yl)-1,2-benzisoxazole] |  |  | 53 | 4 |
| O=C(c1ccc(C(F)(F)F)c(C#Cc2ccccn2)c1)N1CCN(C(=O)c2ccco2)CC1 [Compound 375, 1-(furan-2-ylcarbonyl)-4-{[3-(pyridin-2-ylethynyl)-4-(trifluoromethyl)phenyl]carbonyl}piperazine] |  |  | 40 | 29 |
| O=C(c1ccc(C(F)(F)F)c(C#Cc2ccccn2)c1)N1CCN(c2nccs2)CC1 [Compound 378, 1-{[3-(pyridin-2-ylethynyl)-4-(trifluoromethyl)phenyl]carbonyl}-4-(1,3-thiazol-2-yl)piperazine] |  |  | 43 | 49 |
| COc1nc(N2CCN(C(=O)c3ccc(OC(F)F)c(C#Cc4ccccn4)c3)CC2)ncc1Br [Compound 382, 5-bromo-2-(4-{[4-(difluoromethoxy)-3-(pyridin-2-ylethynyl)phenyl]carbonyl}piperazin-1-yl)-4-methoxy pyrimidine] |  |  | 104 | 35 |
| O=C(c1ccc(OC(F)F)c(C#Cc2ccccn2)c1)N1CCN(c2nsc3ccccc23)CC1 [Compound 383, 3-(4-{[4-(difluoromethoxy)-3-(pyridin-2-ylethynyl)phenyl]carbonyl}piperazin-1-yl)-1,2-benzisothiazole] |  |  | 41 | 1 |
| O=C(c1ccc(OC(F)F)c(C#Cc2ccccn2)c1)N1CCN(c2noc3ccccc23)CC1 [Compound 384, 3-(4-{[4-(difluoromethoxy)-3-(pyridin-2-ylethynyl)phenyl]carbonyl}piperazin-1-yl)-1,2-benzisoxazole] |  |  | 16 | 1 |
| O=C(c1ccc(OC(F)F)c(C#Cc2ccccn2)c1)N1CCN(c2ccccn2)CC1 [Compound 385, 1-{[4-(Difluoromethoxy)-3-(pyridin-2-ylethynyl)phenyl]carbonyl}-4-pyridin-2-ylpiperazin] |  |  | 13 | 7 |
| O=C(c1ccc(Cl)c(C#Cc2ccccn2)c1)N1CCN(c2ccccn2)CC1 [Compound 386, 1-[4-chloro-3-(pyridin-2-ylethynyl)benzoyl]-4-pyridin-2-ylpiperazin] |  |  | 39 | 3 |
